Results taken from patent US9944678B2, “Immunomodulators” (BRISTOL-MYERS SQUIBB COMPANY, priority 2014, dated 2018).
Starred links: 1 amine or outer side, 2 acyl side, 3 side chain; linkers in the order of their positions; H or OH if unused. Positions of bridges follow the written chain, without caps; N, C: chain ends. Non-standard residues stand in square brackets, D forms with d. Residues, ends and D or L forms follow the SMILES beside them. ξ: configuration not given here. X1 = C=C[C@H]1C[C@@]1(N[*:1])C(=O)[*:2]; Bta = N[C@@H](Cc1csc2ccccc12)C(=O)O; Hyp = O=C(O)[C@@H]1C[C@@H](O)CN1; Aic = NC1(C(=O)O)Cc2ccccc2C1; NMeNle = CCCC[C@H](NC)C(=O)O; NMeA = CN[C@@H](C)C(=O)O; Ac5c = NC1(C(=O)O)CCCC1; Dab = NCC[C@H](N)C(=O)O; Dap = NC[C@H](N)C(=O)O; Ac3c = NC1(C(=O)O)CC1; Aib = CC(C)(N)C(=O)O; ξC = NC(CS)C(=O)O

Target: T1, PD-1-Ig binding to PD-L1-TVMV-His (PD-L1-His) (Homo sapiens, UniProt Q9NZQ7)
T1 construct: hPDL1(19-239)-TVMV-His; TVMV protease cleavage site (C); made in house; host or cells: HEK293T cells
T1 sequence (Q9NZQ7 with tags, fused parts or gaps): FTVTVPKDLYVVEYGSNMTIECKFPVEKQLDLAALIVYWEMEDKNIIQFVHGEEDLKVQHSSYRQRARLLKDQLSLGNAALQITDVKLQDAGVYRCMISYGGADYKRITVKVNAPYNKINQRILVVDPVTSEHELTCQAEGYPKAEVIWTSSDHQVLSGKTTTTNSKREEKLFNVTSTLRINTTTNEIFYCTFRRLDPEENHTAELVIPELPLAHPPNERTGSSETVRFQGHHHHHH
Test: PD-1/PD-L1 Homogenous Time-Resolved Fluorescence (HTRF) binding assay
Details: PD-1-Ig/PD-L1-His binding
From the text: The ability of the macrocyclic peptides of the present disclosure to bind to PD-L1 was investigated using a PD-1/PD-L1 Homogenous Time-Resolved Fluorescence (HTRF) binding assay.
Homogenous Time-Resolved Fluorescence (HTRF) Assays of Binding of Soluble PD-1 to Soluble PD-L1. Soluble PD-1 and soluble PD-L1 refers to proteins with carboxyl-end truncations that remove the transmembrane-spanning regions and are fused to heterologous sequences, specifically the Fc portion of the human immunoglobuling G sequence (Ig) or the hexahistidine epitope tag (His). All binding studies were performed in an HTRF assay buffer consisting of dPBS supplemented with 0.1% (w/v) bovine serum albumin and 0.05% (v/v) Tween-20. For the PD-1-Ig/PD-L1-His binding assay, inhibitors were pre-incubated with PD-L1-His (10 nM final) for 15 m in 4 μl of assay buffer, followed by addition of PD-1-Ig (20 nM final) in 1 μl of assay buffer and further incubation for 15 m. PD-L1 fusion proteins from either human, cynomologous macaques, mouse, or other species were used. HTRF detection was achieved using europium crypate-labeled anti-Ig monoclonal antibody (1 nM final) and allophycocyanin (APC) labeled anti-His monoclonal antibody (20 nM final). Antibodies were diluted in HTRF detection buffer and 5 μl was dispensed on top of binding reaction. The reaction was allowed to equilibrate for 30 minutes and signal (665 nm/620 nm ratio) was obtained using an EnVision fluorometer. Additional binding assays were established between PD-1-Ig/PD-L2-His (20 and 5 nM, respectively), CD80-His/PD-L1-Ig (100 and 10 nM, respectively) and CD80-His/CTLA4-Ig (10 and 5 nM, respectively). Binding/competition studies between biotinylated Compound No. 71 and human PD-L1-His were performed as follows. Macrocyclic peptide inhibitors were pre-incubated with PD-L1-His (10 nM final) for 60 minutes in 4 μl of assay buffer followed by addition of biotinylated Compound No. 71 (0.5 nM final) in 1 μl of assay buffer. Binding was allowed to equilibrate for 30 minutes followed by addition of europium crypated labeled Streptavidin (2.5 pM final) and APC-labeled anti-His (20 nM final) in 5 μl of HTRF buffer. The reaction was allowed to equilibrate for 30 m and signal (665 nm/620 nm ratio) was obtained using an EnVision fluorometer.
Recombinant Proteins. Carboxyl-truncated human PD-1 (amino acids 25-167) with a C-terminal human Ig epitope tag [hPD-1 (25-167)-3S-IG] and human PD-L1 (amino acids 18-239) with a C-terminal His epitope tag [hPD-L1(19-239)-tobacco vein mottling virus protease cleavage site (TVMV)-His] were expressed in HEK293T cells and purified sequentially by recombinant Protein A affinity chromatography and size exclusion chromatography. Human PD-L2-His (Sino Biologicals), CD80-His (Sino Biologicals), CTLA4-Ig (RnD Systems) were all obtained through commercial sources.
Ranges are as follows: A=0.10-10 μM; B=0.01-0.099 μM; C=0.004-0.0099 μM.

Q: CCCC[C@H]1C(=O)N(C)[C@@H](CCCC)C(=O)N[C@@H](CC(C)C)C(=O)N[C@H](C(=O)NCC(N)=O)CSCC(=O)N[C@@H](Cc2ccc(O)cc2)C(=O)N(C)[C@@H](C)C(=O)N[C@@H](CC(N)=O)C(=O)N2CCC[C@H]2C(=O)N[C@@H](CN)C(=O)NC(C)(C)C(=O)N2C[C@H](O)C[C@H]2C(=O)N[C@@H](Cc2c[nH]c3ccccc23)C(=O)N[C@@H](CCN)C(=O)N[C@@H](Cc2c[nH]c3ccccc23)C(=O)N1C [Example 9009] ({CH2CO}-Y[NMeA]NP[Dap][Aib][Hyp]W[Dab]W[NMeNle][NMeNle]LCG-NH2; thioether N-14) was tested. Which IC50 (values given as range classes) did it give?
A: 100 to 10000 nM

Q: Which IC50 (numeric values) does the source give for CCCC[C@H]1C(=O)N(C)[C@@H](CCCC)C(=O)N[C@@H](CC(C)C)C(=O)N[C@H](C(=O)NCC(N)=O)CSCC(=O)N[C@@H](Cc2ccc(O)cc2)C(=O)N(C)[C@@H](C)C(=O)N[C@@H](CC(N)=O)C(=O)N2CCC[C@H]2C(=O)NC(C)(C)C(=O)N[C@@H](CC(C)C)C(=O)N2C[C@H](O)C[C@H]2C(=O)N[C@@H](Cc2c[nH]c3ccccc23)C(=O)N[C@@H](CCN)C(=O)N[C@@H](Cc2c[nH]c3ccccc23)C(=O)N1C [Example 9011] ({CH2CO}-Y[NMeA]NP[Aib]L[Hyp]W[Dab]W[NMeNle][NMeNle]LCG-NH2; thioether N-14) here?
A: 20 nM

Q: With CCCC[C@H]1C(=O)N(C)[C@@H](CCCC)C(=O)N[C@@H](CC(C)C)C(=O)N[C@H](C(=O)NCC(N)=O)CSCC(=O)N[C@@H](Cc2ccc(O)cc2)C(=O)N(C)[C@@H](C)C(=O)N[C@@H](CC(N)=O)C(=O)N2CCC[C@H]2C(=O)NC2(CC2)C(=O)N[C@@H](CC(C)C)C(=O)N2C[C@H](O)C[C@H]2C(=O)N[C@@H](Cc2c[nH]c3ccccc23)C(=O)N[C@@H](CCN)C(=O)N[C@@H](Cc2c[nH]c3ccccc23)C(=O)N1C [Example 9012] ({CH2CO}-Y[NMeA]NP[Ac3c]L[Hyp]W[Dab]W[NMeNle][NMeNle]LCG-NH2; thioether N-14) as the molecule, how does the IC50 (values given as range classes) read?
A: 10 to 99 nM

Q: How did the IC50 (values given as range classes) turn out when CCCC[C@H]1C(=O)N(C)[C@@H](CCCC)C(=O)N[C@@H](CC(C)C)C(=O)N[C@H](C(=O)NCC(N)=O)CSCC(=O)N[C@@H](Cc2ccc(O)cc2)C(=O)N(C)[C@@H](C)C(=O)NC(C)(C)C(=O)N2CCC[C@H]2C(=O)N[C@@H](CN)C(=O)N[C@@H](CC(C)C)C(=O)N2C[C@H](O)C[C@H]2C(=O)N[C@@H](Cc2c[nH]c3ccccc23)C(=O)N[C@@H](CCN)C(=O)N[C@@H](Cc2c[nH]c3ccccc23)C(=O)N1C [Example 9013] ({CH2CO}-Y[NMeA][Aib]P[Dap]L[Hyp]W[Dab]W[NMeNle][NMeNle]LCG-NH2; thioether N-14) was run?
A: 100 to 10000 nM

Q: For CCCC[C@H]1C(=O)N(C)[C@@H](CCCC)C(=O)N[C@@H](CC(C)C)C(=O)N[C@H](C(=O)NCC(N)=O)CSCC(=O)N[C@@H](Cc2ccc(O)cc2)C(=O)N(C)[C@@H](C)C(=O)NC2(CC2)C(=O)N2CCC[C@H]2C(=O)N[C@@H](CN)C(=O)N[C@@H](CC(C)C)C(=O)N2C[C@H](O)C[C@H]2C(=O)N[C@@H](Cc2c[nH]c3ccccc23)C(=O)N[C@@H](CCN)C(=O)N[C@@H](Cc2c[nH]c3ccccc23)C(=O)N1C [Example 9014] ({CH2CO}-Y[NMeA][Ac3c]P[Dap]L[Hyp]W[Dab]W[NMeNle][NMeNle]LCG-NH2; thioether N-14), which IC50 (values given as range classes) is on record?
A: 100 to 10000 nM

Q: Which IC50 (values given as range classes) does the source give for CCCC[C@H]1C(=O)N(C)[C@@H](CCCC)C(=O)NC2(CCCC2)C(=O)N[C@H](C(=O)NCC(N)=O)CSCC(=O)N[C@@H](Cc2ccc(O)cc2)C(=O)N(C)[C@@H](C)C(=O)N[C@@H](CC(N)=O)C(=O)N2CCC[C@H]2C(=O)N[C@@H](CN)C(=O)N[C@@H](CC(C)C)C(=O)N2C[C@H](O)C[C@H]2C(=O)N[C@@H](Cc2c[nH]c3ccccc23)C(=O)N[C@@H](CCN)C(=O)N[C@@H](Cc2c[nH]c3ccccc23)C(=O)N1C [Example 9015] ({CH2CO}-Y[NMeA]NP[Dap]L[Hyp]W[Dab]W[NMeNle][NMeNle][Ac5c]CG-NH2; thioether N-14) here?
A: 10 to 99 nM

Q: How did the IC50 (values given as range classes) turn out when CCCC[C@H]1C(=O)N(C)[C@@H](CCCC)C(=O)NC2(Cc3ccccc3C2)C(=O)N[C@H](C(=O)NCC(N)=O)CSCC(=O)N[C@@H](Cc2ccc(O)cc2)C(=O)N(C)[C@@H](C)C(=O)N[C@@H](CC(N)=O)C(=O)N2CCC[C@H]2C(=O)N[C@@H](CN)C(=O)N[C@@H](CC(C)C)C(=O)N2C[C@H](O)C[C@H]2C(=O)N[C@@H](Cc2c[nH]c3ccccc23)C(=O)N[C@@H](CCN)C(=O)N[C@@H](Cc2c[nH]c3ccccc23)C(=O)N1C [Example 9016] ({CH2CO}-Y[NMeA]NP[Dap]L[Hyp]W[Dab]W[NMeNle][NMeNle][Aic]CG-NH2; thioether N-14) was run?
A: 10 to 99 nM

Q: CCCC[C@H]1C(=O)N(C)[C@@H](CCCC)C(=O)N[C@@H](CC(C)C)C(=O)N[C@H](C(=O)NCC(N)=O)CSCC(=O)N[C@@H](Cc2ccc(O)cc2)C(=O)N(C)[C@@H](C)C(=O)N[C@@H](CC(N)=O)C(=O)N2CCC[C@H]2C(=O)NC2(CCCC2)C(=O)N[C@@H](CC(C)C)C(=O)N2C[C@H](O)C[C@H]2C(=O)N[C@@H](Cc2c[nH]c3ccccc23)C(=O)N[C@@H](CCN)C(=O)N[C@@H](Cc2c[nH]c3ccccc23)C(=O)N1C [Example 9017] ({CH2CO}-Y[NMeA]NP[Ac5c]L[Hyp]W[Dab]W[NMeNle][NMeNle]LCG-NH2; thioether N-14) was tested. Which IC50 (values given as range classes) did it give?
A: 10 to 99 nM

Q: Which IC50 (values given as range classes) does the source give for CCCC[C@H]1C(=O)N(C)[C@@H](CCCC)C(=O)N[C@@H](CC(C)C)C(=O)N[C@H](C(=O)NCC(N)=O)CSCC(=O)N[C@@H](Cc2ccc(O)cc2)C(=O)N(C)[C@@H](C)C(=O)N[C@@H](CC(N)=O)C(=O)N2CCC[C@H]2C(=O)NC2(Cc3ccccc3C2)C(=O)N[C@@H](CC(C)C)C(=O)N2C[C@H](O)C[C@H]2C(=O)N[C@@H](Cc2c[nH]c3ccccc23)C(=O)N[C@@H](CCN)C(=O)N[C@@H](Cc2c[nH]c3ccccc23)C(=O)N1C [Example 9018] ({CH2CO}-Y[NMeA]NP[Aic]L[Hyp]W[Dab]W[NMeNle][NMeNle]LCG-NH2; thioether N-14) here?
A: 10 to 99 nM

Q: How did the IC50 (values given as range classes) turn out when C=C[C@H]1C[C@]12NC(=O)[C@H](CC(N)=O)NC(=O)[C@H](C)N(C)C(=O)[C@H](Cc1ccc(O)cc1)NC(=O)CSCC(C(=O)NCC(N)=O)NC(=O)[C@H](CCCNC(=N)N)NC(=O)[C@H](CCCC)N(C)C(=O)[C@H](CCCC)N(C)C(=O)[C@H](Cc1csc3ccccc13)NC(=O)[C@H](CO)NC(=O)[C@H](Cc1c[nH]c3ccccc13)NC(=O)[C@@H]1CCCN1C(=O)[C@H](CC(C)C)NC(=O)[C@H](Cc1cnc[nH]1)NC2=O (some centres unmarked) [Example 10001] ({CH2CO}-Y[NMeA]N[X1]HLPWS[Bta][NMeNle][NMeNle]R[ξC]G-NH2; thioether N-14) was run?
A: 100 to 10000 nM

Q: Which IC50 (numeric values) does the source give for C=C[C@H]1C[C@]12NC(=O)[C@H](CC(N)=O)NC(=O)[C@H](C)N(C)C(=O)[C@H](Cc1ccc(O)cc1)NC(=O)CSCC(C(=O)NCC(N)=O)NC(=O)[C@H](CCCNC(=N)N)NC(=O)[C@H](CCCC)N(C)C(=O)[C@H](CCCC)N(C)C(=O)[C@H](Cc1csc3ccccc13)NC(=O)[C@H](CO)NC(=O)[C@H](Cc1c[nH]c3ccccc13)NC(=O)[C@@H]1C[C@@H](O)CN1C(=O)[C@H](CC(C)C)NC(=O)[C@H](Cc1cnc[nH]1)NC2=O (some centres unmarked) [Example 10002] ({CH2CO}-Y[NMeA]N[X1]HL[Hyp]WS[Bta][NMeNle][NMeNle]R[ξC]G-NH2; thioether N-14) here?
A: 200 nM
